Measurements published in patent US5506359A, “Cocaine analogues and their use as cocaine drug therapies and therapeutic and imaging agents for neurodegenerative disorders” (priority 1993, dated 1996).

What was measured:
[1] = test system: squirrel monkeys trained to discriminate cocaine; assay: Drug discrimination (cocaine versus saline); assay type: in vivo, squirrel monkeys (Saimiri sciureus); details: training dose cocaine 0.3-0.56 mg/kg
Procedure: The subjective (interoceptive) effects of cocaine were studied in monkeys through the use of a drug discrimination procedure. […] Squirrel monkeys were trained to discriminate cocaine (0.3-0.56 mg/kg) from saline using a two-level choice procedure.
(§1) For drug discrimination and self administration studies, experiments are conducted with rodents or squirrel monkeys (Saimiri sciureus) seated in standard primate chairs enclosed in ventilated, sound-attenuating chambers. The chairs are equipped with response levers, stimulus lights, food pellet dispensers, and pumps for injecting drugs intravenously. Four animals are studied in each experiment, with each subject receiving all drug treatments whenever possible. Response rates and temporal patterns of responding are monitored continuously during daily experimental sessions. Effects of drugs are analyzed in individual subjects by comparing performances during drug sessions with those during control sessions. […]
Drug discrimination experiments are conducted using cumulative-dose procedures similar to those described in Madras et al. (Soc. Neurosci. Abst. 16:14, 1990; Pharmacol. Biochem. Behav. 35:949-953, 1990) and Spealman et al. (J. Pharmacol. Exp. Ther. 258:945-953, 1991). […] Good agreement has been found between the effects of drugs determined by cumulative-dose procedures and by single-dose procedures when appropriate parameters are selected. […]

[2] = test system: squirrel monkeys (i.v. drug self-administration); assay: Drug self-administration under second order schedule; assay type: in vivo, squirrel monkeys (Saimiri sciureus)
Source text: To determine whether CFT also mimicked cocaine's behavioral effects in vivo (specifically the reinforcing and interoceptive effects), squirrel monkeys were trained to respond under a second order schedule of i.v. drug self-administration (see detailed description below). […] The results were consistent with the view that the reinforcing effects of cocaine are mediated by cocaine recognition sites associated with the dopamine uptake system.
as §1, with “Four animals are studied in each experiment, with each subject receiving all drug treatments whenever possible.” left out
Initially, responding is maintained using an injection dose of 100 μg/kg cocaine, which usually is optimal for developing i.v. self-administration.After consistent rates and patterns of responding are maintained by cocaine, the effects of a full range of doses of cocaine and of selected candidate drugs is determined. […]

[3] = target: dopamine transporter, human caudate nucleus and putamen (Homo sapiens, UniProt Q01959); assay: [^3 H]CFT binding to homogenates of human caudate nucleus and putamen; details: human caudate nucleus and putamen homogenates
Chain of dopamine transporter, human caudate nucleus and putamen (Q01959 whole entry): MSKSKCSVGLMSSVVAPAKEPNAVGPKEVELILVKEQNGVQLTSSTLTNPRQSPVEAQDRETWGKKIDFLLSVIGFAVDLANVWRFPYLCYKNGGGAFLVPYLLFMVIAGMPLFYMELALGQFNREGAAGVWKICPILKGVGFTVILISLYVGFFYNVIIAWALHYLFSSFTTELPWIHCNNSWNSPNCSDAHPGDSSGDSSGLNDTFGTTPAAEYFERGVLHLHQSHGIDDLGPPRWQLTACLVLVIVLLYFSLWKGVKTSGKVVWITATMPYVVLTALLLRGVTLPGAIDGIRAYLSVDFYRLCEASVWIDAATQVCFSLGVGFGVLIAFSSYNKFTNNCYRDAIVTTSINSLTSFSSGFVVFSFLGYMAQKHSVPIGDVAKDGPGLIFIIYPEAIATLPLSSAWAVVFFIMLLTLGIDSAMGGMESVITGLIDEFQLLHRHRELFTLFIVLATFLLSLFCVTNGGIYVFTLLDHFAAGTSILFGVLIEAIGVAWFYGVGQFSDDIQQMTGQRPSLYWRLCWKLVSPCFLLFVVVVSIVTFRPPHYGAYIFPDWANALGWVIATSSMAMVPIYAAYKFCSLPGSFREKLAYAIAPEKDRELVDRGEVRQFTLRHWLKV
Source text: In order to determine whether [^3 H]CFT labels sites associated with the dopamine transporter, the binding of [^3 H]CFT to homogenates of human caudate nucleus and putamen, was characterized.

[4] = test system: [^3 H]CFT binding sites in monkey caudate-putamen; details: cited from earlier work

COC(=O)[C@H]1[C@@H](c2ccc(F)cc2)C[C@@H]2CC[C@H]1N2C [4'a (CFT), 2β-carbomethoxy-3β-(4-fluorophenyl)tropane]
generalization to cocaine cue [1]: fully generalized to the cocaine cue | potency in maintaining responding relative to cocaine [2]: approximately six | rank order of potency for inhibiting [^3 H]CFT binding [3]: Lu 19-005>CFT, mazindol, GBR 12909>(-)-cocaine>bupropion>(+)-cocaine | extent of displacement of [^3 H]CFT [4]: full displacement of [^3 H]CFT | number of binding components ([4]; competition curves): at least two binding components | steepness of competition curve ([4]; displacement of [^3 H]CFT): 0.61-0.89
